# Reference: PubChem BioAssay (NCI)
#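 Following 48 hours of exposure in 96-well plates, responses at five concentrations were used to interpolate endpoints linearly. At the TGI there is no net growth.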
# Key:
# Assay in all cases: NCI-60 cell line screen, 48 h
# DLD-1 colon = tested on: DLD-1 colon
# XF 498 CNS = tested on: XF 498 CNS
# DMS 273 small cell lung = tested on: DMS 273 small cell lung
# CAKI-1 renal = tested on: CAKI-1 renal
# M19-MEL melanoma = tested on: M19-MEL melanoma
# SNB-78 CNS = tested on: SNB-78 CNS
# LXFL 529 NSCLC = tested on: LXFL 529 NSCLC
smiles,measurement,setting,value
C#CCCCCC#Cc1ccccc1C(=O)OC,TGI,DLD-1 colon,> 100 µM
same,TGI,XF 498 CNS,> 100 µM
same,TGI,DMS 273 small cell lung,> 100 µM
C=CCN1C(=O)/C(=C/c2ccccc2)N=C1SC1OC(COC(=O)c2ccccc2)C(OC(=O)c2ccccc2)C1OC(=O)c1ccccc1 (centres undefined),TGI,CAKI-1 renal,> 100 µM
O=C(O)CC/C(=N\Nc1nsc2ccccc12)c1ccccc1,TGI,M19-MEL melanoma,> 100 µM
same,TGI,DMS 273 small cell lung,67.3 µM
same,TGI,SNB-78 CNS,> 100 µM
same,TGI,LXFL 529 NSCLC,> 100 µM
COC(=O)C1C(C(=O)OC)N(Cc2ccccc2)C(=O)N1Cc1ccccc1 (centres undefined),TGI,CAKI-1 renal,> 100 µM
